Source: US20240228506A1, “RIPK1 INHIBITORS AND METHODS OF USE” (Merck Sharp & Dohme LLC, priority 2021, published 2024)

Target: T1, GST-RIPK1 (recombinant GST-RIPK1 kinase domain (residues 1-327)) (Homo sapiens, UniProt Q13546)
T1 construct: recombinant GST-RIPK1 kinase domain (residues 1-327) enzyme; made in house; host or cells: baculovirus-transfected Sf21 insect cells
T1 sequence (Q13546 1-327): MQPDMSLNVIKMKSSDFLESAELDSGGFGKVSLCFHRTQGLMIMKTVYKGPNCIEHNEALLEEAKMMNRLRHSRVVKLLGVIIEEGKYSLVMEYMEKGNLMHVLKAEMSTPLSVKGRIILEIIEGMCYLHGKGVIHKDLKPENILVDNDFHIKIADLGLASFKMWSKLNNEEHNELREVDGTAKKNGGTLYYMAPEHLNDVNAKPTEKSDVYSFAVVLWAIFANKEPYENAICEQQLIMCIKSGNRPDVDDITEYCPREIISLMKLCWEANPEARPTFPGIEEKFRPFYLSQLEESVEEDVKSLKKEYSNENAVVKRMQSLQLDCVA
Assay: RIPK1-ADP-Glo enzymatic assay
Assay type: biochemical
Details: 25 nM GST-RIPK1, 300 μM ATP, 3 μM dephosphorylated-MBP; 30 minutes pre-incubation, 150 minutes reaction; ten-point titration
In short: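 Ten-point 1:3 titrations from 100000 nM, 1% DMSO, were preincubated 30 min with 25 nM GST-RIPK1 (1-327) before starting with 300 μM ATP plus 3 μM dephosphorylated MBP; 150 min reaction. ADP-Glo luminescence measured ATP-to-ADP conversion; EC50 by four-parameter sigmoidal regression.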

SMILES	IC50 [nM]
O=C(N1C[C@@H]2C[C@H]1c1cncc(C#Cc3cccnc3)c1O2)C12CCC(F)(CC1)C2 [Compound 2-101, (4-fluorobicyclo[2.2.1]heptan-1-yl)((2S,5S)-9-(pyridin-3-ylethynyl)-2,3-dihydro-2,5-methanopyrido[3,4-f][1,4]oxazepin-4(5H)-yl)methanone]	12
O=C(N1C[C@@H]2C[C@H]1c1cncc(C#Cc3cncnc3)c1O2)C12CCC(F)(CC1)C2 [Compound 2-102, (4-fluorobicyclo[2.2.1]heptan-1-yl)((2S,5S)-9-(pyrimidin-5-ylethynyl)-2,3-dihydro-2,5-methanopyrido[3,4-f][1,4]oxazepin-4(5H)-yl)methanone]	13
Cc1ccc(C#Cc2cncc3c2O[C@H]2C[C@@H]3N(C(=O)C34CCC(F)(CC3)C4)C2)cc1 [Compound 2-103, (4-fluorobicyclo[2.2.1]heptan-1-yl)((2S,5S)-9-(p-tolylethynyl)-2,3-dihydro-2,5-methanopyrido[3,4-f][1,4]oxazepin-4(5H)-yl)methanone]	21
Cc1cccc(C#Cc2cncc3c2O[C@H]2C[C@@H]3N(C(=O)C34CCC(F)(CC3)C4)C2)c1 [Compound 2-104, (4-fluorobicyclo[2.2.1]heptan-1-yl)((2S,5S)-9-(m-tolylethynyl)-2,3-dihydro-2,5-methanopyrido[3,4-f][1,4]oxazepin-4(5H)-yl)methanone]	23
N#CCc1ccc(C#Cc2cncc3c2O[C@H]2C[C@@H]3N(C(=O)C34CCC(F)(CC3)C4)C2)cc1 [Compound 2-105]	18
O=C(N1C[C@@H]2C[C@H]1c1cncc(C#CC3CC3)c1O2)C12CCC(F)(CC1)C2 [Compound 2-115, ((2S,5S)-9-(Cyclopropylethynyl)-2,3-dihydro-2,5-methanopyrido[3,4-f][1,4]oxazepin-4(5H)-yl)(4-fluorobicyclo[2.2.1]heptan-1-yl)methanone]	32
CC1(CC#Cc2cncc3c2O[C@H]2C[C@@H]3N(C(=O)C34CCC(F)(CC3)C4)C2)COC1 [Compound 2-116, (4-fluorobicyclo[2.2.1]heptan-1-yl)((2S,5S)-9-(3-(3-methyloxetan-3-yl)prop-1-yn-1-yl)-2,3-dihydro-2,5-methanopyrido[3,4-f][1,4]oxazepin-4(5H)-yl)methanone]	376
O=C(N1C[C@@H]2C[C@H]1c1cncc(C#CCC3CCOC3)c1O2)C12CCC(F)(CC1)C2 (stereo partly drawn) [Compound 2-118, (4-fluorobicyclo[2.2.1]heptan-1-yl)((2S,5S)-9-(3-(tetrahydrofuran-3-yl)prop-1-yn-1-yl)-2,3-dihydro-2,5-methanopyrido[3,4-f][1,4]oxazepin-4(5H)-yl)methanone]	64
O=C(N1C[C@@H]2C[C@H]1c1cncc(C#CC3COC3)c1O2)C12CCC(F)(CC1)C2 [Compound 2-119, (4-fluorobicyclo[2.2.1]heptan-1-yl)((2S,5S)-9-(oxetan-3-ylethynyl)-2,3-dihydro-2,5-methanopyrido[3,4-f][1,4]oxazepin-4(5H)-yl)methanone]	57
O=C(N1C[C@@H]2C[C@H]1c1cncc(C#CCC3(F)COC3)c1O2)C12CCC(F)(CC1)C2 [Compound 2-120, (4-fluorobicyclo[2.2.1]heptan-1-yl)((2S,5S)-9-(3-(3-fluorooxetan-3-yl)prop-1-yn-1-yl)-2,3-dihydro-2,5-methanopyrido[3,4-f][1,4]oxazepin-4(5H)-yl)methanone]	95
CC1(C(=O)N2C[C@@H]3C[C@H]2c2cncc(C#Cc4ccc(F)cc4)c2O3)CCCC1 [Compound 2-121, ((2S,5S)-9-((4-Fluorophenyl)ethynyl)-2,3-dihydro-2,5-methanopyrido[3,4-f][1,4]oxazepin-4(5H)-yl)(1-methylcyclopentyl)methanone]	34
O=C(N1C[C@@H]2C[C@H]1c1cncc(C#Cc3ccc(F)cc3)c1O2)C12CCC(F)(CC1)C2 [Compound 2-122, (4-fluorobicyclo[2.2.1]heptan-1-yl)((2S,5S)-9-((4-fluorophenyl)ethynyl)-2,3-dihydro-2,5-methanopyrido[3,4-f][1,4]oxazepin-4(5H)-yl)methanone]	24

Next, values leading:

IC50 [nM]	SMILES
197	CC(C)C#Cc1cncc2c1O[C@H]1C[C@@H]2N(C(=O)C(C)(C)C(F)F)C1 [Compound 2-106, 3,3-Difluoro-2,2-dimethyl-1-((2S,5S)-9-(3-methylbut-1-yn-1-yl)-2,3-dihydro-2,5-methanopyrido[3,4-f][1,4]oxazepin-4(5H)-yl)propan-1-one]
150	CC(C)(C(=O)N1C[C@@H]2C[C@H]1c1cncc(C#CCC3CCOCC3)c1O2)C(F)F [Compound 2-107, 3,3-difluoro-2,2-dimethyl-1-((2S,5S)-9-(3-(tetrahydro-2H-pyran-4-yl)prop-1-yn-1-yl)-2,3-dihydro-2,5-methanopyrido[3,4-f][1,4]oxazepin-4(5H)-yl)propan-1-one]
163	CC(C)(C)CCC#Cc1cncc2c1O[C@H]1C[C@@H]2N(C(=O)C(C)(C)C(F)F)C1 [Compound 2-108, 1-((2S,5S)-9-(5,5-dimethylhex-1-yn-1-yl)-2,3-dihydro-2,5-methanopyrido[3,4-f][1,4]oxazepin-4(5H)-yl)-3,3-difluoro-2,2-dimethylpropan-1-one]
184	CC(C)(C(=O)N1C[C@@H]2C[C@H]1c1cncc(C#CCC3CCCCC3)c1O2)C(F)F [Compound 2-109, 1-((2S,5S)-9-(3-cyclohexylprop-1-yn-1-yl)-2,3-dihydro-2,5-methanopyrido[3,4-f][1,4]oxazepin-4(5H)-yl)-3,3-difluoro-2,2-dimethylpropan-1-one]
197	CC(C)(C(=O)N1C[C@@H]2C[C@H]1c1cncc(C#CCCc3ccccc3)c1O2)C(F)F [Compound 2-110, 3,3-difluoro-2,2-dimethyl-1-((2S,5S)-9-(4-phenylbut-1-yn-1-yl)-2,3-dihydro-2,5-methanopyrido[3,4-f][1,4]oxazepin-4(5H)-yl)propan-1-one]
266	CC(C)(C(=O)N1C[C@@H]2C[C@H]1c1cncc(C#CCCC(F)(F)F)c1O2)C(F)F [Compound 2-111, 3,3-difluoro-2,2-dimethyl-1-((2S,5S)-9-(5,5,5-trifluoropent-1-yn-1-yl)-2,3-dihydro-2,5-methanopyrido[3,4-f][1,4]oxazepin-4(5H)-yl)propan-1-one]
83	CC[C@H](C)CC#Cc1cncc2c1O[C@H]1C[C@@H]2N(C(=O)C(C)(C)C(F)F)C1 [Compound 2-112, 3,3-difluoro-2,2-dimethyl-1-((2S,5S)-9-((S)-4-methylhex-1-yn-1-yl)-2,3-dihydro-2,5-methanopyrido[3,4-f][1,4]oxazepin-4(5H)-yl)propan-1-one]
116	CC(C)(C(=O)N1C[C@@H]2C[C@H]1c1cncc(C#CCF)c1O2)C(F)F [Compound 2-113, 3,3-difluoro-1-((2S,5S)-9-(3-fluoroprop-1-yn-1-yl)-2,3-dihydro-2,5-methanopyrido[3,4-f][1,4]oxazepin-4(5H)-yl)-2,2-dimethylpropan-1-one]
1530	CC(C)(C(=O)N1C[C@@H]2C[C@H]1c1cncc(C#CC34CC(C(F)(F)F)(C3)C4)c1O2)C(F)F [Compound 2-114, 3,3-difluoro-2,2-dimethyl-1-((2S,5S)-9-((3-(trifluoromethyl)bicyclo [1.1.1]pentan-1-yl)ethynyl)-2,3-dihydro-2,5-methanopyrido[3,4-f][1,4]oxazepin-4(5H)-yl)propan-1-one]
43	CCC#Cc1cncc2c1O[C@H]1C[C@@H]2N(C(=O)C23CCC(F)(CC2)C3)C1 [Compound 2-117]
